Reference: ChEMBL document CHEMBL4507287, “Data for DCP probe MRL-650” (2021)

Tests used:
[1] = molecular target: Calcium/calmodulin-dependent protein kinase type II subunit gamma (Homo sapiens) (UniProt Q13555); details: Compound concentration 1000.0 nM
[2] = molecular target: Tyrosine-protein kinase HCK (Homo sapiens) (UniProt P08631); details: Compound concentration 1000.0 nM
[3] = test system: Receptor-type tyrosine-protein kinase FLT3 (Homo sapiens), P36888 [D835V]; details: Compound concentration 1000.0 nM
[4] = molecular target: Tyrosine-protein kinase JAK3 (Homo sapiens) (UniProt P52333); details: Compound concentration 1000.0 nM
[5] = molecular target: Receptor tyrosine-protein kinase erbB-2 (Homo sapiens) (UniProt P04626); details: Compound concentration 1000.0 nM
[6] = molecular target: Receptor-type tyrosine-protein kinase FLT3 (Homo sapiens) (UniProt P36888); details: Compound concentration 1000.0 nM
[7] = molecular target: Misshapen-like kinase 1 (Homo sapiens) (UniProt Q8N4C8); details: Compound concentration 1000.0 nM
[8] = test system: Phosphatidylinositol 4,5-bisphosphate 3-kinase catalytic subunit alpha isoform (Homo sapiens), P42336 [E545K]; details: Compound concentration 1000.0 nM
[9] = molecular target: Ribosomal protein S6 kinase alpha-6 (Homo sapiens) (UniProt Q9UK32); details: Compound concentration 1000.0 nM
[10] = molecular target: Calcium/calmodulin-dependent protein kinase type 1 (Homo sapiens) (UniProt Q14012); details: Compound concentration 1000.0 nM
[11] = molecular target: Death-associated protein kinase 3 (Homo sapiens) (UniProt O43293); details: Compound concentration 1000.0 nM
[12] = molecular target: Mitogen-activated protein kinase 4 (Homo sapiens) (UniProt P31152); details: Compound concentration 1000.0 nM
[13] = molecular target: Phosphorylase b kinase gamma catalytic chain, skeletal muscle/heart isoform (Homo sapiens) (UniProt Q16816); details: Compound concentration 1000.0 nM
[14] = molecular target: Phosphatidylinositol 4,5-bisphosphate 3-kinase catalytic subunit delta isoform (Homo sapiens) (UniProt O00329); details: Compound concentration 1000.0 nM
[15] = molecular target: Inhibitor of nuclear factor kappa-B kinase subunit beta (Homo sapiens) (UniProt O14920); details: Compound concentration 1000.0 nM
[16] = molecular target: Beta-3 adrenergic receptor (Homo sapiens, UniProt P13945); details: Compound concentration 10.0 uM
[17] = molecular target: Mitogen-activated protein kinase kinase kinase kinase 3 (Homo sapiens) (UniProt Q8IVH8); details: Compound concentration 1000.0 nM
[18] = molecular target: Serine/threonine-protein kinase 17B (Homo sapiens) (UniProt O94768); details: Compound concentration 1000.0 nM
[19] = molecular target: Muscarinic acetylcholine receptor M1 (Homo sapiens) (UniProt P11229); details: Compound concentration 10.0 uM
[20] = molecular target: GABA-A receptor; anion channel (Rattus norvegicus) (UniProt O09028+P15431+P18506+P18508+P19969+P20236+P23574+P23576+P28471+P28473+P30191+P62813+P63079+P63138+Q91ZM7+Q9ES14); details: Compound concentration 10.0 uM
[21] = molecular target: Phosphatidylinositol 4-kinase beta (Homo sapiens) (UniProt Q9UBF8); details: Compound concentration 1000.0 nM
[22] = molecular target: 5'-AMP-activated protein kinase catalytic subunit alpha-1 (Homo sapiens) (UniProt Q13131); details: Compound concentration 1000.0 nM
[23] = molecular target: Ribosomal protein S6 kinase alpha-4 (Homo sapiens) (UniProt O75676); details: Compound concentration 1000.0 nM
[24] = molecular target: Atypical kinase COQ8A, mitochondrial (Homo sapiens) (UniProt Q8NI60); details: Compound concentration 1000.0 nM
[25] = molecular target: Serine/threonine-protein kinase PAK 2 (Homo sapiens) (UniProt Q13177); details: Compound concentration 1000.0 nM
[26] = molecular target: Beta-adrenergic receptor kinase 1 (Homo sapiens) (UniProt P25098); details: Compound concentration 1000.0 nM
[27] = molecular target: Tyrosine-protein kinase receptor Tie-1 (Homo sapiens) (UniProt P35590); details: Compound concentration 1000.0 nM
[28] = molecular target: Mitogen-activated protein kinase kinase kinase 9 (Homo sapiens) (UniProt P80192); details: Compound concentration 1000.0 nM
[29] = test system: Phosphatidylinositol 4,5-bisphosphate 3-kinase catalytic subunit alpha isoform (Homo sapiens), P42336 [E542K]; details: Compound concentration 1000.0 nM
[30] = molecular target: Casein kinase II subunit alpha' (Homo sapiens) (UniProt P19784); details: Compound concentration 1000.0 nM
[31] = molecular target: Ephrin type-A receptor 8 (Homo sapiens) (UniProt P29322); details: Compound concentration 1000.0 nM
[32] = test system: Receptor-type tyrosine-protein kinase FLT3 (Homo sapiens), P36888 [UNDEFINED MUTATION]; details: Compound concentration 1000.0 nM
[33] = molecular target: Mitogen-activated protein kinase kinase kinase 20 (Homo sapiens) (UniProt Q9NYL2); details: Compound concentration 1000.0 nM
[34] = molecular target: Non-receptor tyrosine-protein kinase TNK1 (Homo sapiens) (UniProt Q13470); details: Compound concentration 1000.0 nM
[35] = molecular target: Calcium/calmodulin-dependent protein kinase type 1D (Homo sapiens) (UniProt Q8IU85); details: Compound concentration 1000.0 nM
[36] = molecular target: Insulin-like growth factor 1 receptor (Homo sapiens) (UniProt P08069); details: Compound concentration 1000.0 nM
[37] = molecular target: Wee1-like protein kinase 2 (Homo sapiens) (UniProt P0C1S8); details: Compound concentration 1000.0 nM
[38] = test system: Phosphatidylinositol 4,5-bisphosphate 3-kinase catalytic subunit alpha isoform (Homo sapiens), P42336 [Q546K]; details: Compound concentration 1000.0 nM
[39] = molecular target: Proto-oncogene tyrosine-protein kinase receptor Ret (Homo sapiens) (UniProt P07949); details: Compound concentration 1000.0 nM
[40] = test system: Receptor-type tyrosine-protein kinase FLT3 (Homo sapiens), P36888 [UNDEFINED MUTATION]; details: Compound concentration 1000.0 nM; remark: listed apart in the source
[41] = molecular target: Fibroblast growth factor receptor 4 (Homo sapiens) (UniProt P22455); details: Compound concentration 1000.0 nM
[42] = molecular target: Serine/threonine-protein kinase D3 (Homo sapiens) (UniProt O94806); details: Compound concentration 1000.0 nM

Sequence of Misshapen-like kinase 1 (Homo sapiens) (Q8N4C8 whole entry, looked up, canonical isoform): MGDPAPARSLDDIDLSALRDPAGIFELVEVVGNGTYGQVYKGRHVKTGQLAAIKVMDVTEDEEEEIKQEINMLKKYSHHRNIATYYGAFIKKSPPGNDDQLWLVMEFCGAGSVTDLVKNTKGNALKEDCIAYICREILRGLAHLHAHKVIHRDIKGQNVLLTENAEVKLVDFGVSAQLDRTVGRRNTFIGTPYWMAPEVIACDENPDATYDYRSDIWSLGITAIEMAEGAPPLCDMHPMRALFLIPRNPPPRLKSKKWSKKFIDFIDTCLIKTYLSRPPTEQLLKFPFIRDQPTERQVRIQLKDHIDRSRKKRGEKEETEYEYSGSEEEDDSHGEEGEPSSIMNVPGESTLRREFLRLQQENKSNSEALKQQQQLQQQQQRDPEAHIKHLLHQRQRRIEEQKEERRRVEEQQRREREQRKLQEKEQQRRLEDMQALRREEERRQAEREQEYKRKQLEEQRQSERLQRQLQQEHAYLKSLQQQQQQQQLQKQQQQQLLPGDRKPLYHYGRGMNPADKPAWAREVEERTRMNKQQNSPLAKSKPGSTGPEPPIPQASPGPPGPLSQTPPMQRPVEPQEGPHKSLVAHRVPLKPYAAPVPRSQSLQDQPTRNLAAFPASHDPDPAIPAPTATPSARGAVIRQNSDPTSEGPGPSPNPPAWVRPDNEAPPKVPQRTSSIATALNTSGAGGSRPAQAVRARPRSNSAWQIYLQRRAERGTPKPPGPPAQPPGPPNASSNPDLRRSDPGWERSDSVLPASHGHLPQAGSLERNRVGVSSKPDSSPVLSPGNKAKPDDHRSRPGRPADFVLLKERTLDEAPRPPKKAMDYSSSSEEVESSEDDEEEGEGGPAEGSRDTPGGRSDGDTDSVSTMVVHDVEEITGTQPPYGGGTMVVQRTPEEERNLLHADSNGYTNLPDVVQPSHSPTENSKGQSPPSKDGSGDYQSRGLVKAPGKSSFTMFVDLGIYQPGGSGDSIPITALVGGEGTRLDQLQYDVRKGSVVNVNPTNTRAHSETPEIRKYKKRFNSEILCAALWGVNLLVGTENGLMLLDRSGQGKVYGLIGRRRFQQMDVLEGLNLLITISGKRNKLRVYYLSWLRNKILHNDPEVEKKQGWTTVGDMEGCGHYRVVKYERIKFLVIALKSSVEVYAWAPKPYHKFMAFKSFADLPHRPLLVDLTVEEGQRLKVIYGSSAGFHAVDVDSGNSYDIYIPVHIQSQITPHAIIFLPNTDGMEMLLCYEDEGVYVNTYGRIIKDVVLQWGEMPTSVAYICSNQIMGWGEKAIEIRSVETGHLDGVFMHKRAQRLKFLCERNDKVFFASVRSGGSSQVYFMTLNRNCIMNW
Sequence of Receptor tyrosine-protein kinase erbB-2 (Homo sapiens) (P04626 whole entry): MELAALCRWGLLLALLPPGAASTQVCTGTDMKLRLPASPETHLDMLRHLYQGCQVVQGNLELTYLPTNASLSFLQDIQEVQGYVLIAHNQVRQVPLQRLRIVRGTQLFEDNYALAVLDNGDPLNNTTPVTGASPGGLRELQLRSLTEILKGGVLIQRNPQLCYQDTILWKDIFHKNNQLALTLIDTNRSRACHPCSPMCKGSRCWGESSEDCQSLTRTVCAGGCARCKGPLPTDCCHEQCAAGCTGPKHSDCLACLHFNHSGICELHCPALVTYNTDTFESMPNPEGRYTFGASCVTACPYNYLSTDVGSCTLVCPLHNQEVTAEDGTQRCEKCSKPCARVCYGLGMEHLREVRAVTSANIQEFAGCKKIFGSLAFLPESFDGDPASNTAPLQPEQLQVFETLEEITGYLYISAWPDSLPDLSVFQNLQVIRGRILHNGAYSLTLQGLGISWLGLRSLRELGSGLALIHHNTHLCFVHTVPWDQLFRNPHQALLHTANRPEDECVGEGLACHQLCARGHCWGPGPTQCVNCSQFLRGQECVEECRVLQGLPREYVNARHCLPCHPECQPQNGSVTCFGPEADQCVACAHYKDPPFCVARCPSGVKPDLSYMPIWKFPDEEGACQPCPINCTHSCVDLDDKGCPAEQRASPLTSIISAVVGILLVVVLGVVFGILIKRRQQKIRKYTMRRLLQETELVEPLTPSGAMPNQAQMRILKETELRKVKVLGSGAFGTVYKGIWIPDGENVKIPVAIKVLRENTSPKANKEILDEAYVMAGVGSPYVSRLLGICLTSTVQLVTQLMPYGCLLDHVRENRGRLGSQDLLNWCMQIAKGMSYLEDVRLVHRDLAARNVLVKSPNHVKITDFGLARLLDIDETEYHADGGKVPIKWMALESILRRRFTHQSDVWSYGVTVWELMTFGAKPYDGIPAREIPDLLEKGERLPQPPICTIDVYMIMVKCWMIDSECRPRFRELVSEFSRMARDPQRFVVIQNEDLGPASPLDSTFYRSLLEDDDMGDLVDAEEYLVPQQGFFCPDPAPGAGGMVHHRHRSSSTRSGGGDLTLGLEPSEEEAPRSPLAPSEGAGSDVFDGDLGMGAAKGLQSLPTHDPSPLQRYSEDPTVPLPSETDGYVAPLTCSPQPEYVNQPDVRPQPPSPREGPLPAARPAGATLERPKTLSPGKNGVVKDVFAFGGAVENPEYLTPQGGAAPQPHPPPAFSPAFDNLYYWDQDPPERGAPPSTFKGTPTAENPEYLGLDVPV
Sequence of Non-receptor tyrosine-protein kinase TNK1 (Homo sapiens) (Q13470 whole entry): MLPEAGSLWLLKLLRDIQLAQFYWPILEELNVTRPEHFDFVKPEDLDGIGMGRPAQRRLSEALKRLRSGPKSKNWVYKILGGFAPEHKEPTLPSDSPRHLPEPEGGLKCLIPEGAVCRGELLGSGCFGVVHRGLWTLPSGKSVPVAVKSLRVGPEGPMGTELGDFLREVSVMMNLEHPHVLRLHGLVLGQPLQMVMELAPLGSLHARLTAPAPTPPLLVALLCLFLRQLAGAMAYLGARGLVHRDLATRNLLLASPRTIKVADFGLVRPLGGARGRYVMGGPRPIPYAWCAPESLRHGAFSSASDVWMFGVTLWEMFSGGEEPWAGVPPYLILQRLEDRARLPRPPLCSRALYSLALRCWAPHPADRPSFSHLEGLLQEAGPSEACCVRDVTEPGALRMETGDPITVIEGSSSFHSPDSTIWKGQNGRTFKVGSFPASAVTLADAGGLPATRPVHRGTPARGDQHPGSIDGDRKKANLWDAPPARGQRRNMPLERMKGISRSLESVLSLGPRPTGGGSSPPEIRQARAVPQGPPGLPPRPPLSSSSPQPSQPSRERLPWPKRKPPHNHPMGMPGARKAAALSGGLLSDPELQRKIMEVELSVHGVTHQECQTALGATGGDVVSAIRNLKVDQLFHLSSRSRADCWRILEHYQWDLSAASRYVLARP
Sequence of Wee1-like protein kinase 2 (Homo sapiens) (P0C1S8 whole entry, looked up, canonical isoform): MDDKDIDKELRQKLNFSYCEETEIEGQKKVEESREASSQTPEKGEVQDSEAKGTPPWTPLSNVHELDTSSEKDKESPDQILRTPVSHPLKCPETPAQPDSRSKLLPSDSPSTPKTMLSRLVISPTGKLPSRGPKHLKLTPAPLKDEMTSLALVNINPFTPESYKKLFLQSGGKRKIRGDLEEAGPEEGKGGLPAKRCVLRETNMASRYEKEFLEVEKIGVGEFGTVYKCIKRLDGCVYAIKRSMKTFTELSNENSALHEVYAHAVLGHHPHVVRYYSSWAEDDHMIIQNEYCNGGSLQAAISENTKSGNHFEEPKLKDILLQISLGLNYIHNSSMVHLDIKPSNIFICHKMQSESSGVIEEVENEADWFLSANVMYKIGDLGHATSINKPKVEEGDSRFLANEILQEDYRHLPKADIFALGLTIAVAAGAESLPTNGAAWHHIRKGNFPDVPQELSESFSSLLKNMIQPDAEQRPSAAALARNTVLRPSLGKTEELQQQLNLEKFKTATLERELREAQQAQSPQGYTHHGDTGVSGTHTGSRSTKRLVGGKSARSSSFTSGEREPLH
Sequence of Phosphatidylinositol 4,5-bisphosphate 3-kinase catalytic subunit alpha isoform (Homo sapiens), P42336 [E542K] (P42336 whole entry E542K, canonical isoform): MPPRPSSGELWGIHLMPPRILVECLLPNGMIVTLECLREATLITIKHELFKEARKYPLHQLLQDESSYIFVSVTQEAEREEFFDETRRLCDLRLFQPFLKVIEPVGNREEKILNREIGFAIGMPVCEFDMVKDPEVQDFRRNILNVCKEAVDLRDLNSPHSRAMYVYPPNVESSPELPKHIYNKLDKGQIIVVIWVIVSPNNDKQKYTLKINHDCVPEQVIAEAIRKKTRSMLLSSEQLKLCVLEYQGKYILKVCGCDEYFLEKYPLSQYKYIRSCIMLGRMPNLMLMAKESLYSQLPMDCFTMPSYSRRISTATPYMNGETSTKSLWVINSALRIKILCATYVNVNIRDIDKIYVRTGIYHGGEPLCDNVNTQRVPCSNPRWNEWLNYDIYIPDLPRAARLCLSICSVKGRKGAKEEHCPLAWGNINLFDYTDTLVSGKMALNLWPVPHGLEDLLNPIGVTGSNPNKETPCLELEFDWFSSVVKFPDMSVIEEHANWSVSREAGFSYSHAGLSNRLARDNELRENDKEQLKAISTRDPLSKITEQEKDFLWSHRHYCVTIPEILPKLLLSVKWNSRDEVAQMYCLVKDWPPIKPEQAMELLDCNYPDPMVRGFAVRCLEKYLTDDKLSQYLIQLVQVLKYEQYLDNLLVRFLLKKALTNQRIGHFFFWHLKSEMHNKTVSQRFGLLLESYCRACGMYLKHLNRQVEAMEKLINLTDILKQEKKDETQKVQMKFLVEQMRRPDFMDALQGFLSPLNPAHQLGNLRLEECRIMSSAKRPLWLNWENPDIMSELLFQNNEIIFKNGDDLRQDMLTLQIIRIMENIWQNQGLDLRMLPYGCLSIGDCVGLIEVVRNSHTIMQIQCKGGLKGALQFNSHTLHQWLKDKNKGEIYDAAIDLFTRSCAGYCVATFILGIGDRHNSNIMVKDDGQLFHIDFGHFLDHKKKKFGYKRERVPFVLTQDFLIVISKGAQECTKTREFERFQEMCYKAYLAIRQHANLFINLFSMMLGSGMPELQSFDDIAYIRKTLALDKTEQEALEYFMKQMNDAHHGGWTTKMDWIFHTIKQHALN

CC(=O)Nc1c(C(C)=O)c(=O)n(C)c2nc(-c3ccc(Cl)cc3Cl)c(-c3ccc(Cl)cc3)cc12 [NAPHTHYRIDINONE]
residual activity [1]: 100%
residual activity [2]: 100%
residual activity [3]: 82%
residual activity [4]: 100%
residual activity [5]: 100%
residual activity [6]: 100%
residual activity [7]: 100%
residual activity [8]: 79%
residual activity [9]: 88%
residual activity [10]: 100%
residual activity [11]: 100%
residual activity [12]: 79%
residual activity [13]: 100%
residual activity [14]: 100%
residual activity [15]: 100%
inhibition [16]: 37.6%
residual activity [17]: 100%
residual activity [18]: 100%
inhibition [19]: -3.7%
inhibition [20]: 30.2%
residual activity [21]: 100%
residual activity [22]: 100%
residual activity [23]: 100%
residual activity [24]: 100%
residual activity [25]: 100%
residual activity [26]: 84%
residual activity [27]: 100%
residual activity [28]: 100%
residual activity [29]: 94%
residual activity [30]: 100%
residual activity [31]: 100%
residual activity [32]: 100%
residual activity [33]: 100%
residual activity [34]: 100%
residual activity [35]: 100%
residual activity [36]: 100%
residual activity [37]: 100%
residual activity [38]: 100%
residual activity [39]: 100%
residual activity [40]: 100%
residual activity [41]: 100%
residual activity [42]: 100%

CC(=O)c1c(NS(C)(=O)=O)c2cc(-c3ccc(Cl)cc3)c(-c3ccc(Cl)cc3Cl)nc2n(C)c1=O [MRL-CB1-NC]
residual activity [1]: 100%
residual activity [2]: 100%
residual activity [3]: 89%
residual activity [4]: 100%
residual activity [5]: 100%
residual activity [6]: 96%
residual activity [7]: 100%
residual activity [8]: 91%
residual activity [9]: 76%
residual activity [10]: 100%
residual activity [11]: 100%
residual activity [12]: 100%
residual activity [13]: 94%
residual activity [14]: 100%
residual activity [15]: 98%
inhibition [16]: 69.3%
residual activity [17]: 99%
residual activity [18]: 100%
inhibition [19]: 3.28%
inhibition [20]: 60.9%
residual activity [21]: 74%
residual activity [22]: 100%
residual activity [23]: 87%
residual activity [24]: 100%
residual activity [25]: 100%
residual activity [26]: 74%
residual activity [27]: 100%
residual activity [28]: 100%
residual activity [29]: 76%
residual activity [30]: 100%
residual activity [31]: 97%
residual activity [32]: 87%
residual activity [33]: 92%
residual activity [34]: 100%
residual activity [35]: 100%
residual activity [36]: 100%
residual activity [37]: 100%
residual activity [38]: 86%
residual activity [39]: 93%
residual activity [40]: 94%
residual activity [41]: 100%
residual activity [42]: 100%
